Results reported in patent publication US20230131899A1, “INHIBITORS OF MICROBIALLY INDUCED AMYLOID” (Axial Therapeutics, Inc., priority 2020, published 2023).
Where two headings read alike, the source gives them in different places.

Biological target: T1, E. coli CsgA (Escherichia coli, UniProt P28307)
T1 construct: made in house; host or cells: E. coli NEB 3016 slyD::kan, pET11d
Assay: In vitro ThioflavinT assay of CsgA aggregation (CsgA ThT Assay)
Assay type: biochemical
Conditions: CsgA 2 μM, white plates; for remaining activity at 25 µM: compound 25 μM; for remaining activity at 100 µM: compound 100 μM
In short: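 Purified C-terminal His-tagged CsgA, monomerised by desalting and 30-kDa filtration, at 2-20 μM with 20-40 μM ThT in 50 mM potassium phosphate pH 7.3, 1% DMSO, compounds 3.125-200 uM; room temperature, fluorescence (ex 438/em 495 nm) read every 15 min. Background-subtracted signal expressed as percent inhibition versus vehicle at 6-6.5 or 8-9 h, or as percent control AUC.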

[1] = read-out: CsgA ThT Assay (2 μM CsgA) % Control Bmax 25 μM, activity range, class symbol
[2] = read-out: CsgA ThT Assay (2 μM CsgA) % Control Bmax 25 μM, mean Bmax as percentage of DMSO control
[3] = read-out: CsgA ThT Assay (2 μM CsgA) % Control Bmax 100 μM, activity range, class symbol
[4] = read-out: CsgA ThT Assay (2 μM CsgA) % Control Bmax 100 μM, mean Bmax as percentage of DMSO control

T1 sequence (P28307 23-151): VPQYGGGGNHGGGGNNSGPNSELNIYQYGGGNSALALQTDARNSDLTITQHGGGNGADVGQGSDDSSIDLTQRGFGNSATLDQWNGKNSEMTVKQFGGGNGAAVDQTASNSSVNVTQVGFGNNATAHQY

SMILES: O=C(O)C1CN(CCCCCCN2CC(C(=O)O)n3c2c(-c2cccc(C(F)(F)F)c2)c(Cc2cccc4ccccc24)c(Cl)c3=O)c2c(-c3cccc(C(F)(F)F)c3)c(Cc3cccc4ccccc34)c(Cl)c(=O)n21 (stereo not drawn) [Compound 193, 1,1′-(hexane-1,6-diyl)bis(6-chloro-7-(naphthalen-1-ylmethyl)-5-oxo-8-(3-(trifluoromethyl)phenyl)-1,2,3,5-tetrahydroimidazo[1,2-a]pyridine-3-carboxylic acid)]
- remaining activity at 25 µM [1]: 31 to 60%
- remaining activity at 25 µM [2]: 53%
- remaining activity at 100 µM [3]: < 10%
- remaining activity at 100 µM [4]: 10%

SMILES: O=C(O)C1CN(Cc2ccccc2)c2c(-c3cccc(C(F)(F)F)c3)c(Cc3cccc4ccccc34)c(F)c(=O)n21 (stereo not drawn) [Compound 194, 1-benzyl-6-fluoro-7-(naphthalen-1-ylmethyl)-5-oxo-8-(3-(trifluoromethyl)phenyl)-1,2,3,5-tetrahydroimidazo[1,2-a]pyridine-3-carboxylic acid]
- remaining activity at 25 µM [1]: > 60%
- remaining activity at 25 µM [2]: 100%
- remaining activity at 100 µM [3]: > 60%
- remaining activity at 100 µM [4]: 67%

SMILES: O=C(O)C1CN(Cc2cccc(O)c2)c2c(-c3cccc(C(F)(F)F)c3)c(Cc3cccc4ccccc34)c(Cl)c(=O)n21 (stereo not drawn) [Compound 196, 6-chloro-1-(3-hydroxybenzyl)-7-(naphthalen-1-ylmethyl)-5-oxo-8-(3-(trifluoromethyl)phenyl)-1,2,3,5-tetrahydroimidazo[1,2-a]pyridine-3-carboxylic acid]
- remaining activity at 25 µM [1]: > 60%
- remaining activity at 25 µM [2]: 67%

SMILES: O=C(O)C1CN(CCCO)c2c(-c3cccc(C(F)(F)F)c3)c(Cc3cccc4ccccc34)c(Cl)c(=O)n21 (stereo not drawn) [Compound 197, 6-chloro-1-(3-hydroxypropyl)-7-(naphthalen-1-ylmethyl)-5-oxo-8-(3-(trifluoromethyl)phenyl)-1,2,3,5-tetrahydroimidazo[1,2-a]pyridine-3-carboxylic acid]
- remaining activity at 25 µM [1]: > 60%
- remaining activity at 25 µM [2]: 86%
- remaining activity at 100 µM [3]: > 60%
- remaining activity at 100 µM [4]: 64%

SMILES: O=C(O)C1CN(Cc2ccccc2)c2c(-c3cccc(Br)c3)c(Cc3cccc4ccccc34)c(Cl)c(=O)n21 (stereo not drawn) [Compound 198, 1-benzyl-8-(3-bromophenyl)-6-chloro-7-(naphthalen-1-ylmethyl)-5-oxo-1,2,3,5-tetrahydroimidazo[1,2-a]pyridine-3-carboxylic acid]
- remaining activity at 25 µM [1]: > 60%
- remaining activity at 25 µM [2]: 61%
- remaining activity at 100 µM [3]: 31 to 60%
- remaining activity at 100 µM [4]: 39%

SMILES: O=C(O)C1CN(CCCCCO)c2c(-c3cccc(C(F)(F)F)c3)c(Cc3cccc4ccccc34)c(Cl)c(=O)n21 (stereo not drawn) [Compound 199, 6-chloro-1-(5-hydroxypentyl)-7-(naphthalen-1-ylmethyl)-5-oxo-8-(3-(trifluoromethyl)phenyl)-1,2,3,5-tetrahydroimidazo[1,2-a]pyridine-3-carboxylic acid]
- remaining activity at 25 µM [1]: > 60%
- remaining activity at 25 µM [2]: 83%
- remaining activity at 100 µM [3]: > 60%
- remaining activity at 100 µM [4]: 99%

SMILES: O=C(O)C1CN(Cc2cccc3ccccc23)c2c(-c3cccc(C(F)(F)F)c3)c(Cc3cccc4ccccc34)c(Cl)c(=O)n21 (stereo not drawn) [Compound 200, 6-chloro-1,7-bis(naphthalen-1-ylmethyl)-5-oxo-8-(3-(trifluoromethyl)phenyl)-1,2,3,5-tetrahydroimidazo[1,2-a]pyridine-3-carboxylic acid]
- remaining activity at 25 µM [1]: 31 to 60%
- remaining activity at 25 µM [2]: 52%
- remaining activity at 100 µM [3]: < 10%
- remaining activity at 100 µM [4]: 7%

SMILES: O=C(O)C1CN(Cc2ccc(-c3ccccc3)cc2)c2c(-c3cccc(C(F)(F)F)c3)c(Cc3cccc4ccccc34)c(Cl)c(=O)n21 (stereo not drawn) [Compound 202, 1-([1,1′-biphenyl]-4-ylmethyl)-6-chloro-7-(naphthalen-1-ylmethyl)-5-oxo-8-(3-(trifluoromethyl)phenyl)-1,2,3,5-tetrahydroimidazo[1,2-a]pyridine-3-carboxylic acid]
- remaining activity at 25 µM [1]: 31 to 60%
- remaining activity at 25 µM [2]: 51%

SMILES: O=C(O)C1CN(CCC2CCCCC2)c2c(-c3cccc(C(F)(F)F)c3)c(Cc3cccc4ccccc34)c(Cl)c(=O)n21 (stereo not drawn) [Compound 207, 6-chloro-1-(2-cyclohexylethyl)-7-(naphthalen-1-ylmethyl)-5-oxo-8-(3-(trifluoromethyl)phenyl)-1,2,3,5-tetrahydroimidazo[1,2-a]pyridine-3-carboxylic acid]
- remaining activity at 25 µM [1]: 31 to 60%
- remaining activity at 25 µM [2]: 51%
- remaining activity at 100 µM [3]: 11 to 31%
- remaining activity at 100 µM [4]: 20%

SMILES: CC(C)(C)c1ccc(Cc2c(-c3cccc(C(F)(F)F)c3)c3n(c(=O)c2Cl)C(C(=O)O)CN3Cc2ccccc2)cc1 (stereo not drawn) [Compound 216, 1-benzyl-7-(4-(tert-butyl)benzyl)-6-chloro-5-oxo-8-(3-(trifluoromethyl)phenyl)-1,2,3,5-tetrahydroimidazo[1,2-a]pyridine-3-carboxylic acid]
- remaining activity at 25 µM [1]: > 60%
- remaining activity at 25 µM [2]: 95%
- remaining activity at 100 µM [3]: 31 to 60%
- remaining activity at 100 µM [4]: 55%
